In patent US9725459B2, “3-oxo-tetrahydro-furo[3,2-B]pyrrol-4(5H)-yl) derivatives I” (GRÜNENTHAL GMBH, priority 2014, dated 2017):

Key:
[1] = target: human cathepsin S (CatS) (Homo sapiens (Human), UniProt P25774); experiment: CatS functional enzyme assay; format: biochemical; settings: for Selectivity Ki(hCatS)/Ki(hCatK): ratio Ki(hCatS)/Ki(hCatK); for Ki: recombinant human CatS, substrate Z-VVR-AMC 5 μM, pH 6.5, Ki by Cheng Prusoff equation, read-out: hCatS, Ki
Summary of the method: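 Recombinant human enzymes were incubated 10 min at RT with AMC substrate: CatS 0.0007 mU/well with Z-VVR-AMC 5 µM; CatK 0.00175 mU/well with Z-FR-AMC 40 µM; CatL 0.000874 mU/well with Z-VVR-AMC 40 µM. Fluorescence gave IC50, converted to Ki by Cheng-Prusoff.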

[2] = target: human cathepsin K (CatK) (Homo sapiens (Human), UniProt P43235); experiment: CatK functional enzyme assay; format: biochemical; settings: recombinant human CatK, substrate Z-FR-AMC 40 μM, pH 5.5; Ki by Cheng Prusoff equation; read-out: hCatK, Ki
Chain of human cathepsin K (CatK) (P43235 115-329): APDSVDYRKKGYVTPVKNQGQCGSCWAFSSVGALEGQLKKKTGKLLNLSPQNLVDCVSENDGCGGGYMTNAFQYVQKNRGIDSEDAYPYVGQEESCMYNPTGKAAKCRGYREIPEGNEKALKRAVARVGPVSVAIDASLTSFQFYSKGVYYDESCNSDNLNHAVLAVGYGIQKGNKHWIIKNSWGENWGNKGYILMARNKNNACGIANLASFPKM
Summary of the method: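 Recombinant human enzymes in 50 mM NaOAc, 10 mM EDTA, 1 mM DTT, 0.01% Triton X-100, pH 5.5, 10 min at RT. CatK: 0.00175 mU/well with 40 μM Z-FR-AMC; CatL: 0.000874 mU/well with 40 μM Z-VVR-AMC. AMC fluorescence read; IC50 converted to Ki via Cheng–Prusoff.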

[3] = target: human cathepsin L (CatL) (Homo sapiens (Human), UniProt P07711); experiment: CatL functional enzyme assay; format: biochemical; settings: read-out: hCatL, inhibition [%] at 31.6 μM
Chain of human cathepsin L (CatL) (P07711 114-333): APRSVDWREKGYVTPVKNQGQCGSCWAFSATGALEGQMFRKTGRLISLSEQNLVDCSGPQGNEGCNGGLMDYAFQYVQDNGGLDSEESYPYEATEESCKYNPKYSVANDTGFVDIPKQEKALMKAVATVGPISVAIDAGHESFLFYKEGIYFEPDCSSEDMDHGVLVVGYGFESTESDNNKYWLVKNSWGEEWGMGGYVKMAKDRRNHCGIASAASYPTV

[4] = Caco 2 permeability assay; format: in vitro ADME, human; settings: human; for efflux ratio at 120 min, 10 μM: pH 7.4, efflux ratio ER=Peff(B−A)/Peff(A−B), Caco-2; for Papp A→B at 120 min, 10 μM / Papp B→A at 120 min, 10 μM: Caco-2 monolayer, HBSS pH 7.4; for Papp A→B at 120 min, 10 μM: apical to basolateral, read-out: Peff a − b; for Papp B→A at 120 min, 10 μM: basolateral to apical, read-out: Peff b − a
Protocol: (§1) The intestinal permeability of a potential drug is assessed by in vitro cell culture from a human colon adenoma-carcinoma derived cell line. This cell line expresses some of the systems considered relevant to active drug transport e.g. […] (P-gp). In vitro cellular permeability assays can reflect both, permeation by passive diffusion and active transport (uptake and efflux). The rate of permeation across monolayers of Caco 2 cells were correlated to the extents of absorption (Hidalgo et al., Gastroenterology 1989; 96(3):736 49). Original methodology was developed by Artursson and Taveli (Drug Bioavailability. Series: Methods and Principles in Medicinal Chemistry. Weinheim: Wiley-VCH Verlag; 2003; p. 72-89).
(§2) The assay is performed as a trans-flux experiment. Caco-2 cells (cells from ATCC) are seeded and grown to confluence to form a monolayer (ca. 3 weeks, between passage numbers 40-60) on a readily permeable support in a plastic well supported within a chamber (Millipore Multiscreen Caco-2 plates, at a cell density of ca. 1×10^5 cells/cm^2). Cells are cultured for 20 days in DMEM and media is changed every two or three days. The cells form tight junctions, so paracellular diffusion is not possible, and grow in a polarised manner, efflux transporters (P-gp) are expressed on their apical surfaces facing the culture medium, rather than at their basolateral surfaces through which they are attached to the support membrane. A low concentration of a test compound is added to the upper (apical: A) or lower (basolateral: B) chambers, and the rate of loss from the donor compartment, and the rate of transfer to the acceptor chamber, is determined by LC-MS/MS. Consequently the influence of efflux transporters expressed in the apical membrane can be determined by comparing permeability rates from A to B and B to A. Assays are generally performed in gently shaken protein-free buffer.
(§3) On ca. day 20 the permeability study is performed. The monolayers are prepared by rinsing both basolateral and apical surfaces twice with Hanks Balanced Salt Solution (HBSS) pH 7.4 buffer with HEPES (25 mM) and 4.45 mM glucose at 37° C. Cells are then incubated with HBSS in both apical and basolateral compartments for 40 min to stabilise physiological parameters. Incubations are carried out in an atmosphere of 5% CO2 with a rel. humidity of 95% at 37° C.
(§4) HBSS is next removed from the apical compartment and replaced with test compound dosing solution. Test compound dosing solutions are made by diluting 10 mM test compound in DMSO with HBSS to give a final test compound concentration of 10 μM (final DMSO concentration 1%).
(§5) The fluorescent integrity marker lucifer yellow is also included in the dosing solution. Analytical standards are made from dosing solutions. The apical compartment inserts are then placed into ‘companion’ plates containing fresh HBSS. For basolateral to apical (B-A) permeability determination the experiment is initiated by replacing buffer in the inserts then placing them in companion plates containing dosing solutions. At 120 min the companion plate is removed and apical and basolateral samples diluted for analysis by LC-MS/MS. Test compound permeability is assessed in duplicate. […] Talinolol (a known P-gp substrate 2) is also included as a control compound to assess whether functional P-gp is present in the Caco-2 cell monolayer.
(§6) Test and control compounds are quantified by LC-MS/MS cassette analysis using a 5-point calibration with appropriate dilution of the samples. The starting concentration (C0) and experimental recovery are calculated from both apical and basolateral compartment concentrations.
(§7) Apparent permeability (Papp), used interchangeably with effective permeability (Peff) and efflux ratio (ER) are generated for each compound and reference compound. The permeability coefficient for each compound (Papp) is calculated from the following equation: Peff=dQ/dt/C0×A […]

[5] = test system: Caco-2 cells; experiment: Caco 2 permeability assay; format: in vitro ADME, human; settings: Caco-2, verbal assessment
Protocol: as §1, §2, §3, §4, §5, §6, §7

Chain of human cathepsin S (CatS) (P25774 115-331): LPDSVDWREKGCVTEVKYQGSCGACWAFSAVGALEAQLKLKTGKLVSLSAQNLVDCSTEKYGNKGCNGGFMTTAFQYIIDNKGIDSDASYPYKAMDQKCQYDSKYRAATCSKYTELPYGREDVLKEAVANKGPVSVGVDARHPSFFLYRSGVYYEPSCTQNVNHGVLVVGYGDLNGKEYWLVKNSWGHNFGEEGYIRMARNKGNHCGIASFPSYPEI

Selectivity Ki(hCatS)/Ki(hCatK) [1] | Ki [1] | Ki [2] | inhibition at 31.6 µM [3] | efflux ratio at 120 min, 10 μM [4] | Papp A→B at 120 min, 10 μM [4] | Papp B→A at 120 min, 10 μM [4] | A to B permeability (in words) [5] | B to A permeability (in words) [5] | efflux ratio (ER) (in words) [5] | Compound
4.7 | 56 nM | 12 nM | 28% | 1.3 | 5.37 ×10⁻⁶ cm/s | 7.03 ×10⁻⁶ cm/s | moderate | good | intermediate/low | O=C(N[C@H](C(=O)N1C[C@H](Cl)[C@H]2OCC(=O)[C@H]21)C1CCCCC1)c1ccc(-c2ccncn2)s1 [Example 7, N-((S)-2-((3aS,6S,6aS)-6-chloro-3-oxotetrahydro-2H-furo[3,2-b]pyrrol-4(5H)-yl)-1-cyclohexyl-2-oxoethyl)-5-(pyrimidin-4-yl)thiophene-2-carboxamide]
1.2 | 21 nM | 17 nM | 32% | 7.5 | 1.67 ×10⁻⁶ cm/s | 12.5 ×10⁻⁶ cm/s | moderate | good | intermediate/low | O=C(N[C@H](C(=O)N1C[C@H](Cl)[C@H]2OCC(=O)[C@H]21)C1CCCCC1)c1ccc(-c2ccnnc2)s1 [Example 8, N-((S)-2-((3aS,6S,6aS)-6-chloro-3-oxotetrahydro-2H-furo[3,2-b]pyrrol-4(5H)-yl)-1-cyclohexyl-2-oxoethyl)-5-(pyridazin-4-yl)thiophene-2-carboxamide]
3.8 | 146 nM | 38 nM | 71% | 46.1 | 0.53 ×10⁻⁶ cm/s | 24.6 ×10⁻⁶ cm/s | poor | good | extremely high | O=C(N[C@H](C(=O)N1C[C@H](Cl)[C@H]2OCC(=O)[C@H]21)C1CCCCC1)c1cccc(-c2cn[nH]c2)c1 [Example C1, N-((S)-2-((3aS,6S,6aS)-6-chloro-3-oxotetrahydro-2H-furo[3,2-b]pyrrol-4(5H)-yl)-1-cyclohexyl-2-oxoethyl)3-(1H-pyrazol-4-yl)benzamide, reference compound]

Compound | Selectivity Ki(hCatS)/Ki(hCatK) [1] | Ki [1] | Ki [2] | inhibition at 31.6 µM [3] | efflux ratio at 120 min, 10 μM [4] | Papp A→B at 120 min, 10 μM [4] | Papp B→A at 120 min, 10 μM [4] | A to B permeability (in words) [5] | B to A permeability (in words) [5] | efflux ratio (ER) (in words) [5]
O=C(N[C@H](C(=O)N1C[C@H](Cl)[C@H]2OCC(=O)[C@H]21)C1CCCCC1)c1ccc(-c2cncnc2)s1 [Example 5, N-((S)-2-((3aS,6S,6aS)-6-chloro-3-oxotetrahydro-2H-furo[3,2-b]pyrrol-4(5H)-yl)-1-cyclohexyl-2-oxoethyl)-5-(pyrimidin-5-yl)thiophene-2-carboxamide] | 1.5 | 48 nM | 31 nM | 27% | 3.5 | 4.13 ×10⁻⁶ cm/s | 14.2 ×10⁻⁶ cm/s | moderate | good | intermediate/low
